Assays:
[1] = test system: Saccharomyces cerevisiae wild type strain BY4743; test: AF1 metabolite analysis (GC-MS, LC-MS) of yeast treated with antifungal drugs; assay type: cell-based
[2] = test system: Saccharomyces cerevisiae wild type strain BY4743; test: AF1 combined gene expression and metabolite data mapped to KEGG reactions and pathways; assay type: cell-based
Text: In AF1, two different technologies were utilized: gene expression analysis (for examination of mRNA expression) and metabolite analysis. […] As noted previously, existing metabolic databases may be helpful in practicing the methods and systems of the present invention, but many databases include limitations that make their use in data analysis and pathway mapping less than straightforward. […] This caveat to KEGG makes it difficult to pinpoint the correct pathway when attempting to link a gene to a specific pathway. […] The pathway score indicates how meaningful the mapping is, or how likely it is to be correctly indicative of the pathway involved in the perturbation under examination. The method provides a pathway score based on perturbation levels of genes and/or compounds and the information content of each gene and/or compound in the pathway, i.e., a pathway score indicates the extent to which other pathways are mapped to a gene/compound. For example, imagine that two genes are perturbed in a particular experiment. One gene maps to only one pathway, giving a high degree of probability that the perturbed pathway is the one identified in the mapping. The second gene maps to three pathways. In the later example, there is only one-third the probability that the pathway identified in the mapping is the one perturbed. The present invention provides a method for calculating the pathway scores, so that more weight is given to a score of a gene or compound that maps to only one pathway than to a score of a gene or compound that maps to multiple pathways. […] Where n=the total number of genes in the pathway; ipath—count=the number of pathways containing a gene; and j=the number of genes in the pathway that are perturbed. Another factor to be considered when weighting a pathway score is the degree of perturbation. Degree of perturbation can be calculated, for example, based on a number of standard deviations from a norm, and included in an equation such as the one shown above, so that not only the number of pathways is taken into account, but also accounts for the amount of gene transcript or compound present as compared to a control. Compounds were also linked to pathways using the KEGG database. […] Of the 676 compounds under consideration, 77 were detected in the AF1 samples. […] The multiple mapping feature of KEGG makes it difficult to pinpoint the correct pathway when trying to link a compound to a specific pathway. […] A pathway score calculation is applied to the compounds to account for both information content (number of pathways a compound maps to) and perturbation level. The data were then combined to determine the number of reactions showing an enzyme and at least one compound perturbed, and to determine the number of pathways having at least one enzyme and one perturbed compound perturbed. The results of the analysis are represented in Tables 16 and 17, and were difficult to interpret, illustrating that the ability to draw conclusions from compound mapping to pathways is limited when absent additional data.

Structure (SMILES): OC(Cn1cncn1)(Cn1cncn1)c1ccc(F)cc1F [Fluconazole]
- Fold Change of alanine ([1]; GC): 0.3084
- Fold Change of asparagine ([1]; GC): 0.3999
- Fold Change of aspartic acid ([1]; GC): 0.4337
- Fold Change of campesterol ([1]; GC): 0
- Fold Change of desmosterol ([1]; GC): 0
- Fold Change of disaccaride1 ([1]; GC): 0.3883
- Fold Change of disaccaride2 ([1]; GC): 0.1517
- Fold Change of disaccaride3 ([1]; GC): 0.5803
- Fold Change of ergosterol ([1]; GC): 0.948
- Fold Change of fucosterol ([1]; GC): 6.665
- Fold Change of glutamine ([1]; GC): 0.5242
- Fold Change of glycanopyrose ([1]; GC): 1.202
- Fold Change of glycerol ([1]; GC): 0.2187
- Fold Change of glycine ([1]; GC): −0.1037
- Fold Change of hexadecanoic acid ([1]; GC): 0.1343
- Fold Change of iso citric acid ([1]; GC): 0.3923
- Fold Change of isoleucine ([1]; GC): 0.391
- Fold Change of lanosterol ([1]; GC): 8.462
- Fold Change of leucine ([1]; GC): 0.3387
- Fold Change of lysine ([1]; GC): 0.3412
- Fold Change of malic acid ([1]; GC): 0.3975
- Fold Change of mevalonic acid lactone ([1]; GC): 0.2333
- Fold Change of octadecanoic acid ([1]; GC): 0.082
- Fold Change of oleic acid ([1]; GC): −0.3073
- Fold Change of ornithine2 ([1]; GC): 0.4473
- Fold Change of ornithine3 ([1]; GC): 0.2647
- Fold Change of palmiteliadic acid ([1]; GC): −0.08867
- Fold Change of phenylalanine ([1]; GC): 0.2774
- Fold Change of phosphate ([1]; GC): −0.508
- Fold Change of pyrimidine ([1]; GC): 0.2457
- Fold Change of abscisic acid ([1]; LC): 0
- Fold Change of adenosine ([1]; LC): 0
- Fold Change of glutamine/lysine ([1]; LC): 0.2242
- Fold Change of guanosine ([1]; LC): −0.9981
- Fold Change of 2-ketobutyric acid ([1]; nLC): −0.9992
- Fold Change of 2-ketoglutaric ([1]; nLC): −0.9995
- Fold Change of 3-indolylacetonitri ([1]; nLC): −0.9998
- Fold Change of 4-methylcatechol ([1]; nLC): 0
- Fold Change of 4aminobutyrate/dimg ([1]; nLC): 0.1384
- Fold Change of 5hydroxyLtryptophan ([1]; nLC): 0
- Fold Change of 6-benzylaminopurine ([1]; nLC): 0
- Fold Change of DLaminoadipic acid ([1]; nLC): 0.443
- Fold Change of NacetylDglucosamine ([1]; nLC): 0
- Fold Change of NacetylLglutamate ([1]; nLC): 0.1369
- Fold Change of NacetylLornithine ([1]; nLC): 0
- Fold Change of abscisic acid ([1]; nLC): 0
- Fold Change of aconitic acid ([1]; nLC): 0.6483
- Fold Change of adenine ([1]; nLC): 0
- Fold Change of adenosine ([1]; nLC): 0
- Fold Change of alanine ([1]; nLC): 0.399
- Fold Change of allantoic acid ([1]; nLC): 0.2392
- Fold Change of allantoin ([1]; nLC): 0.3942
- Fold Change of anthranilic acid ([1]; nLC): 0
- Fold Change of arginine ([1]; nLC): 0.6484
- Fold Change of argininosuccinate ([1]; nLC): 0
- Fold Change of asparagine ([1]; nLC): 0.3545
- Fold Change of aspartic ([1]; nLC): 0.4993
- Fold Change of benzoic acid ([1]; nLC): 0
- Fold Change of biotin ([1]; nLC): 0.3455
- Fold Change of caffeic acid ([1]; nLC): −0.4711
- Fold Change of catechol ([1]; nLC): 0
- Fold Change of cinnamic acid ([1]; nLC): 0
- Fold Change of citricanoic/itaconi ([1]; nLC): 0
- Fold Change of citrulline ([1]; nLC): 0
- Fold Change of coumaric acid ([1]; nLC): 0
- Fold Change of cytidine ([1]; nLC): −0.7969
- Fold Change of cytosine ([1]; nLC): 0
- Fold Change of decanoic acid ([1]; nLC): 0.1846
- Fold Change of diaminopimelic acid ([1]; nLC): 0
- Fold Change of dihydrofolic acid ([1]; nLC): 0
- Fold Change of estrone ([1]; nLC): 0
- Fold Change of farnesol ([1]; nLC): 0
- Fold Change of folic acid ([1]; nLC): 0
- Fold Change of fumaric/3m2oxobutan ([1]; nLC): 0.6009
- Fold Change of gallic acid ([1]; nLC): 0.5071
- Fold Change of gibberellic ([1]; nLC): 0
- Fold Change of giutamine/lysine ([1]; nLC): 0.3309
- Fold Change of glucosamine6PO4 ([1]; nLC): −0.9951
- Fold Change of glutamic/acetylseri ([1]; nLC): 0.3842
- Fold Change of guanine ([1]; nLC): 0
- Fold Change of guanosine ([1]; nLC): −0.993
- Fold Change of histidine ([1]; nLC): 0
- Fold Change of homogentisic/uric ([1]; nLC): 0
- Fold Change of hydrocortisone ([1]; nLC): 0
- Fold Change of indole3pyruvic acid ([1]; nLC): 0
- Fold Change of inostol/glucos/sorb ([1]; nLC): −0.4744
- Fold Change of isocitric/citric/qu ([1]; nLC): 1.457
- Fold Change of jasmonic acid ([1]; nLC): 0
- Fold Change of kinetin ([1]; nLC): 0
- Fold Change of lactic acid ([1]; nLC): −0.0439
- Fold Change of lauric acid ([1]; nLC): 0.3906
- Fold Change of leucine/isoleucine/ ([1]; nLC): 0.3306
- Fold Change of luteolin ([1]; nLC): 0
- Fold Change of malic acid ([1]; nLC): 0.4366
- Fold Change of malonic acid ([1]; nLC): 0
- Fold Change of menthol* ([1]; nLC): 0.04758
- Fold Change of methionine ([1]; nLC): 0
- Fold Change of nicotinic acid ([1]; nLC): 2.443
- Fold Change of nopaline ([1]; nLC): 0.3432
- Fold Change of oleic acid ([1]; nLC): −0.01684
- Fold Change of ornithine ([1]; nLC): 0.3508
- Fold Change of orotic acid ([1]; nLC): 0
- Fold Change of palmitic acid ([1]; nLC): −0.0233
- Fold Change of phenylalanine ([1]; nLC): 0.1527
- Fold Change of phenylpyruvic acid ([1]; nLC): 0
- Fold Change of phosphoenolpyruvate ([1]; nLC): 0
- Fold Change of pinitol ([1]; nLC): 0
- Fold Change of pipecolic acid ([1]; nLC): 0.2901
- Fold Change of porphobilinogen ([1]; nLC): 0
- Fold Change of proline ([1]; nLC): 0.4164
- Fold Change of pyridoxine ([1]; nLC): −0.04201
- Fold Change of 4-aminobenzoic acid ([1]; pLC): 0
- Fold Change of 4-methylcatechol ([1]; pLC): 0
- Fold Change of 4ambutyrate/dimglyc ([1]; pLC): −0.4383
- Fold Change of 5hydroxyLtryptophan ([1]; pLC): 0
- Fold Change of 6benzylaminopurine ([1]; pLC): 0
- Fold Change of DL-aminoadipic acid ([1]; pLC): 0.1155
- Fold Change of NacetylDglucosamine ([1]; pLC): 0
- Fold Change of NacetylLglutamate ([1]; pLC): 0
- Fold Change of NacetylLornithine ([1]; pLC): 0.1584
- Fold Change of adenine ([1]; pLC): −0.09439
- Fold Change of alanine/sarcosine ([1]; pLC): 0.1269
- Fold Change of allantoic acid ([1]; pLC): 0
- Fold Change of anthranilic acid ([1]; pLC): 0
- Fold Change of arginine ([1]; pLC): 0.1179
- Fold Change of argininosuccinate ([1]; pLC): 0
- Fold Change of asparagine ([1]; pLC): 0.3192
- Fold Change of aspartic acid ([1]; pLC): 0.214
- Fold Change of biotin ([1]; pLC): 0
- Fold Change of caffeine ([1]; pLC): 0
- Fold Change of citric acid TME ([1]; pLC): 0
- Fold Change of citrulline ([1]; pLC): 0.08252
- Fold Change of cytidine ([1]; pLC): 0
- Fold Change of cytosine ([1]; pLC): 0
- Fold Change of diaminopimelic acid ([1]; pLC): 0
- Fold Change of dihydrofolic acid ([1]; pLC): 0
- Fold Change of dipicolinic acid ([1]; pLC): 0
- Fold Change of folic acid ([1]; pLC): 0
- Fold Change of glucosamine ([1]; pLC): 0
- Fold Change of glucosamine6PO4 ([1]; pLC): 0
- Fold Change of glutamate ([1]; pLC): −0.06179
- Fold Change of glutathione ([1]; pLC): −0.05832
- Fold Change of histidine ([1]; pLC): 0
- Fold Change of hydrocortisone ([1]; pLC): 0
- Fold Change of hypoxanthine ([1]; pLC): 0.1298
- Fold Change of itaconic acid dimes ([1]; pLC): 0
- Fold Change of kinetin ([1]; pLC): 0
- Fold Change of leucine/isoleucine/ ([1]; pLC): 0.1638
- Fold Change of luteolin ([1]; pLC): 0
- Fold Change of mannitol ([1]; pLC): 0.152
- Fold Change of methionine ([1]; pLC): −0.2906
- Fold Change of mevalonic lactone ([1]; pLC): −0.5175
- Fold Change of niacinamide ([1]; pLC): 0
- Fold Change of nicotinic acid ([1]; pLC): −0.7982
- Fold Change of nopaline ([1]; pLC): 0
- Fold Change of ornithine ([1]; pLC): 0.4775
- Fold Change of phenylalanine ([1]; pLC): −0.1809
- Fold Change of phosphoenolpyruvate ([1]; pLC): 0
- Fold Change of pipecolic acid ([1]; pLC): 0.2583
- Fold Change of progesterone ([1]; pLC): 0
- Fold Change of proline ([1]; pLC): 0.2075
- Fold Change of pyridoxine ([1]; pLC): −0.3831
- Number of Reactions Having an Enzyme and at Least One Compound Perturbed [2]: 2

Reference: patent US20040018500A1, “Methods and systems for analyzing complex biological systems” (priority 2001, published 2004)
